# Values of other authors as cited in patent US20140079751A1, “METHOD OF USING COMPOSITE OF SILVER NANOPARTICLES AND NANOSILICATE PLATELETS TO INHIBIT GROWTH OF SILVER-RESISTANT BACTERIA” (priority 2010, published 2014).
# System: silver-resistant Escherichia coli (J53pMG101)
# Details: background statement, Escherichia coli strain J53 pMG101
substance,measurement,value
silver ions,silver ion concentration the strain can survive,more than 1 mM
